Tested on: Plasmodium berghei
Assay: Luciferase/luciferin-expressing antifolate-resistant parasites were used to infect a culture of HepG2 cells that were pre-incubated with compounds. Infected hepatocytes emit light due to the luciferase reaction. Assay results are presented as the percent inhibition of light emission compared to control. […]
Assay type: functional
Details: sporozoite; for IC90: read-out: LUCIFERASE INFECTION ASSAY - IC90

SMILES | IC90 | also measured
CCOc1ccc(-c2nc(CSc3nc(C)nc4sc5c(c34)CCCC5)cs2)cc1OC | > 10 µM | IC50 (FFLUC_HILL_SLOPE 22.7, FFLUC_R_SQUARED 0.174, read-out: LUCIFERASE INFECTION ASSAY - IC50): > 10 µM
CC(C)[C@H](NS(=O)(=O)c1ccc2c(c1)OCCO2)C(=O)Nc1nc(-c2ccc(F)c(F)c2)cs1 | > 10 µM | IC50 (FFLUC_HILL_SLOPE 26.7, FFLUC_R_SQUARED 0.287, HEPG2TOX_HILL_SLOPE 3.72, HEPG2TOX_R_SQUARED 0.958, PBLUC_HILL_SLOPE 3.86, PBLUC_R_SQUARED 0.4, read-out: LUCIFERASE INFECTION ASSAY - IC50): 6.43 µM
CCOC(=O)c1cc(C#N)c(Sc2n[nH]c(=O)n2Cc2ccc(C(F)(F)F)cc2)nc1C | > 7.12 µM | IC50 (FFLUC_HILL_SLOPE 26.6, FFLUC_R_SQUARED 0.376, read-out: LUCIFERASE INFECTION ASSAY - IC50): > 7.12 µM
Oc1cccnc1NC(c1ccc(Br)cc1)c1ccc2cccnc2c1O (configuration not stated) | 7.73 µM | IC50 (FFLUC_HILL_SLOPE 24.2, FFLUC_R_SQUARED 0.301, HEPG2TOX_HILL_SLOPE 1.67, HEPG2TOX_R_SQUARED 0.953, PBLUC_HILL_SLOPE 5.65, PBLUC_R_SQUARED 0.637, read-out: LUCIFERASE INFECTION ASSAY - IC50): 5.24 µM
O=C(CSc1nnc(Nc2ccc(SC(F)F)cc2)s1)c1cccs1 | > 10 µM | IC50 (FFLUC_HILL_SLOPE 26.5, FFLUC_R_SQUARED 0.442, read-out: LUCIFERASE INFECTION ASSAY - IC50): > 10 µM
CCOC(=O)c1sc(SCc2ccccc2)c2c1CC(c1ccc(C)cc1)CC2O (configuration not stated) | > 7.52 µM | IC50 (FFLUC_HILL_SLOPE 27.4, FFLUC_R_SQUARED 0.148, read-out: LUCIFERASE INFECTION ASSAY - IC50): > 7.52 µM
CCn1c2ccccc2c2cc(NC(=O)COC(=O)CCNS(=O)(=O)c3cccc(C)c3)ccc21 | > 10 µM | IC50 (FFLUC_HILL_SLOPE 22.4, FFLUC_R_SQUARED 0.497, HEPG2TOX_HILL_SLOPE 9.12, HEPG2TOX_R_SQUARED 0.733, read-out: LUCIFERASE INFECTION ASSAY - IC50): > 10 µM
Cc1nn2c(=O)c(Cc3cccc(Cl)c3)c(C)[nH]c2c1-c1ccccc1 | 2.81 µM | IC50 (FFLUC_HILL_SLOPE 22.4, FFLUC_R_SQUARED 0.436, HEPG2TOX_HILL_SLOPE 3.67, HEPG2TOX_R_SQUARED 0.334, PBLUC_HILL_SLOPE 3.2, PBLUC_R_SQUARED 0.748, read-out: LUCIFERASE INFECTION ASSAY - IC50): 1.41 µM
C=C1S/C(=N\c2ccccc2OC)N(C(=O)c2c(-c3ccccc3Cl)noc2C)C12CCCCC2 | > 6.5 µM | IC50 (FFLUC_HILL_SLOPE 28.3, FFLUC_R_SQUARED 0.328, HEPG2TOX_HILL_SLOPE 0.898, HEPG2TOX_R_SQUARED 0.613, PBLUC_HILL_SLOPE 1.13, PBLUC_R_SQUARED 0.144, read-out: LUCIFERASE INFECTION ASSAY - IC50): 3.72 µM
Clc1ccc(C2=NN=C/C2=N\Nc2ccccc2)cc1 | > 11.7 µM | IC50 (FFLUC_HILL_SLOPE 24, FFLUC_R_SQUARED 0.142, HEPG2TOX_HILL_SLOPE 12.3, HEPG2TOX_R_SQUARED 0.867, PBLUC_HILL_SLOPE 2.49, PBLUC_R_SQUARED 0.792, read-out: LUCIFERASE INFECTION ASSAY - IC50): 5.52 µM
C=S(=O)(NC(=O)CSc1nnc(C(F)(F)F)n1C)c1ccc(Cl)cc1 (configuration not stated) | > 7.99 µM | IC50 (FFLUC_HILL_SLOPE 23.5, FFLUC_R_SQUARED 0.129, read-out: LUCIFERASE INFECTION ASSAY - IC50): > 7.99 µM
COC(=O)c1cccc(S(=O)(=O)Oc2cc3ccccc3cc2C(=O)Nc2cc(C)ccc2OC)c1 | > 10 µM | IC50 (FFLUC_HILL_SLOPE 26.2, FFLUC_R_SQUARED 0.533, PBLUC_HILL_SLOPE 4.23, PBLUC_R_SQUARED 0.622, read-out: LUCIFERASE INFECTION ASSAY - IC50): 8.38 µM
CCC(C)c1ccc(-n2c(SCC(=O)N3c4ccccc4CC3C)nc3ccccc3c2=O)cc1 (configuration not stated) | 9.46 µM | IC50 (FFLUC_HILL_SLOPE 26.9, FFLUC_R_SQUARED 0.3, PBLUC_HILL_SLOPE 22.4, PBLUC_R_SQUARED 0.296, read-out: LUCIFERASE INFECTION ASSAY - IC50): 8.58 µM
Cn1nc(-c2ccc(Cl)cc2)cc1N | > 15.9 µM | IC50 (FFLUC_HILL_SLOPE 24.2, FFLUC_R_SQUARED 0.094, read-out: LUCIFERASE INFECTION ASSAY - IC50): > 15.9 µM
Cn1c(-c2ccccc2)c(C(Nc2ccccn2)c2ccccc2O)c2ccccc21 (configuration not stated) | > 10 µM | IC50 (FFLUC_HILL_SLOPE 22.7, FFLUC_R_SQUARED 0.0514, read-out: LUCIFERASE INFECTION ASSAY - IC50): > 10 µM
CC(=O)n1ncc(Sc2ccc(Cl)cc2)c1-c1ccc(Cl)cc1 | > 9.08 µM | IC50 (FFLUC_HILL_SLOPE 25.1, FFLUC_R_SQUARED 0.0752, read-out: LUCIFERASE INFECTION ASSAY - IC50): > 9.08 µM

SMILES | IC90 | also measured
CN(C)c1ccc(C(c2ccc(OC(F)(F)F)cc2)c2ccc(N(C)C)cc2)cc1 | 3.56 µM | IC50 (FFLUC_HILL_SLOPE 27.2, FFLUC_R_SQUARED 0.132, HEPG2TOX_HILL_SLOPE 6.02, HEPG2TOX_R_SQUARED 0.417, PBLUC_HILL_SLOPE 10.6, PBLUC_R_SQUARED 0.521, read-out: LUCIFERASE INFECTION ASSAY - IC50): 2.89 µM
Cc1cc2oc(=O)cc(CN3CCC(c4c[nH]c5ccccc45)CC3)c2cc1C | > 10 µM | IC50 (FFLUC_HILL_SLOPE 22.3, FFLUC_R_SQUARED 0.464, read-out: LUCIFERASE INFECTION ASSAY - IC50): > 10 µM
O=C(Nc1nc2ccccn2c1C(=O)NC1CCCC1)c1ccc(F)c(F)c1 | 3.18 µM | IC50 (FFLUC_HILL_SLOPE 26.5, FFLUC_R_SQUARED 0.0302, HEPG2TOX_HILL_SLOPE 1.05, HEPG2TOX_R_SQUARED 0.954, PBLUC_HILL_SLOPE 2.57, PBLUC_R_SQUARED 0.624, read-out: LUCIFERASE INFECTION ASSAY - IC50): 1.35 µM
CCCCNC(=O)c1c(NC(=O)c2ccc(F)c(F)c2)nc2ccccn12 | 0.748 µM | IC50 (FFLUC_HILL_SLOPE 25.4, FFLUC_R_SQUARED 0.228, HEPG2TOX_HILL_SLOPE 1.03, HEPG2TOX_R_SQUARED 0.844, PBLUC_HILL_SLOPE 2.52, PBLUC_R_SQUARED 0.719, read-out: LUCIFERASE INFECTION ASSAY - IC50): 0.313 µM
Cc1cc(C)c(C)c(S(=O)(=O)N2CCC(C(=O)Nc3nc(-c4ccc[nH]4)cs3)CC2)c1C | > 10 µM | IC50 (FFLUC_HILL_SLOPE 22.1, FFLUC_R_SQUARED 0.531, read-out: LUCIFERASE INFECTION ASSAY - IC50): > 10 µM
O=C(N1CCC(C(c2ccccc2)c2ccccc2)CC1)C(Cl)(Cl)Cl | > 8.32 µM | IC50 (FFLUC_HILL_SLOPE 23.3, FFLUC_R_SQUARED 0.47, HEPG2TOX_HILL_SLOPE 6.45, HEPG2TOX_R_SQUARED 0.799, read-out: LUCIFERASE INFECTION ASSAY - IC50): > 8.32 µM
Cc1ccc2nc(NC(=O)c3cccc(Cl)c3)c(C(=O)NC3CCCC3)n2c1 | 1.47 µM | IC50 (FFLUC_HILL_SLOPE 23.2, FFLUC_R_SQUARED 0.442, HEPG2TOX_HILL_SLOPE 1.26, HEPG2TOX_R_SQUARED 0.897, PBLUC_HILL_SLOPE 7.29, PBLUC_R_SQUARED 0.437, read-out: LUCIFERASE INFECTION ASSAY - IC50): 1.09 µM
Cc1c(C(=O)N2CCCCC2)sc2nc(-c3ccc(Cl)cc3)nn12 | 8.36 µM | IC50 (FFLUC_HILL_SLOPE 28.1, FFLUC_R_SQUARED 0.294, PBLUC_HILL_SLOPE 1.44, PBLUC_R_SQUARED 0.531, read-out: LUCIFERASE INFECTION ASSAY - IC50): 1.82 µM
Cc1ccc(N2C(=O)/C(=C/c3ccc(C(C)C)cc3)N=C2SCC(=O)C23CC4CC(CC(C4)C2)C3)cc1 | > 10 µM | IC50 (FFLUC_HILL_SLOPE 28, FFLUC_R_SQUARED 0.571, PBLUC_HILL_SLOPE 16, PBLUC_R_SQUARED 0.0407, read-out: LUCIFERASE INFECTION ASSAY - IC50): 9.9 µM
Cc1[nH]c2ccc(C(=O)Nc3ccc(N4CCOCC4)nc3)cc2c1C | > 10 µM | IC50 (FFLUC_HILL_SLOPE 22.7, FFLUC_R_SQUARED 0.475, read-out: LUCIFERASE INFECTION ASSAY - IC50): > 10 µM
CCc1ccc(/C=C/c2ccc3cccc(O)c3n2)cc1 | 0.313 µM | IC50 (FFLUC_HILL_SLOPE 27.9, FFLUC_R_SQUARED 0.597, HEPG2TOX_HILL_SLOPE 1.09, HEPG2TOX_R_SQUARED 0.82, PBLUC_HILL_SLOPE 3.2, PBLUC_R_SQUARED 0.533, read-out: LUCIFERASE INFECTION ASSAY - IC50): 0.157 µM
Cc1cccc(Oc2ccc(NC(=O)c3cccc(S(=O)(=O)N(C)C4CCCCC4)c3)cc2)c1 | 9.44 µM | IC50 (FFLUC_HILL_SLOPE 23.3, FFLUC_R_SQUARED 0.81, HEPG2TOX_HILL_SLOPE 1.26, HEPG2TOX_R_SQUARED 0.904, PBLUC_HILL_SLOPE 3.5, PBLUC_R_SQUARED 0.0916, read-out: LUCIFERASE INFECTION ASSAY - IC50): 5.04 µM
O=[N+]([O-])c1ccc(Sc2nc(-c3ccccc3)c(-c3ccccc3)[nH]2)cc1 | > 8.84 µM | IC50 (FFLUC_HILL_SLOPE 23.8, FFLUC_R_SQUARED 0.615, read-out: LUCIFERASE INFECTION ASSAY - IC50): > 8.84 µM
COc1ccc(C(=O)Nc2ccc3nc(-c4ccccc4)nn3c2)cc1F | > 10 µM | IC50 (FFLUC_HILL_SLOPE 22.9, FFLUC_R_SQUARED 0.117, read-out: LUCIFERASE INFECTION ASSAY - IC50): > 10 µM
COc1ccc(S(=O)(=O)N2CCCCC2)cc1NC(=O)c1nn(CC(C)C)c(=O)c2ccccc12 | 4.38 µM | IC50 (FFLUC_HILL_SLOPE 27.6, FFLUC_R_SQUARED 0.604, PBLUC_HILL_SLOPE 11.9, PBLUC_R_SQUARED 0.273, read-out: LUCIFERASE INFECTION ASSAY - IC50): 3.64 µM

Source: ChEMBL document CHEMBL4483862, “Open-source discovery of chemical leads for next-generation chemoprotective antimalarials” (2018)
